Measured values from US20230148599A1, “FUNGICIDAL MIXTURES CONTAINING PYRAZOLE DERIVATIVES” (FMC Corporation, priority 2020, published 2023).

Key:
Assay type in all cases: in vivo
[1] = system: Alternaria solani; test: Test F: tomato early blight, preventive spray on tomato seedlings; conditions: 120 h, 100 = 100% disease control, 0 = no control, read-out: Test F disease control rating
Excerpt: (§1) General protocol for preparing test suspensions for Tests A-F: the test compounds were first dissolved in acetone in an amount equal to 3% of the final volume and then suspended at the desired concentration (in ppm) in acetone and purified water (50/50 mix by volume) containing 250 ppm of the surfactant PEG400 (polyhydric alcohol esters). The resulting test suspensions were then used in Tests A-F.
(§2) The test suspension was sprayed to the point of run-off on tomato seedlings. The following day the seedlings were inoculated with a spore suspension of Alternaria solani (the causal agent of tomato early blight) and incubated in a saturated atmosphere at 27° C. for 48 h, and then moved to a growth chamber at 20° C. for 3 days, after which time visual disease ratings were made.
(§3) A rating of 100 indicates 100% disease control and a rating of 0 indicates no disease control (relative to the controls). A dash (−) indicates the compound was not tested.

[2] = system: Puccinia recondita f. sp. tritici; test: Test B: wheat leaf rust, preventive spray on wheat seedlings; conditions: 192 h, 100 = 100% disease control, 0 = no control, read-out: Test B disease control rating
Excerpt: as §1
The test solution was sprayed to the point of run-off on wheat seedlings. The following day the seedlings were inoculated with a spore suspension of Puccinia recondita f. sp. tritici (the causal agent of wheat leaf rust) and incubated in a saturated atmosphere at 20° C. for 24 h, and then moved to a growth chamber at 20° C. for 7 days, after which time disease ratings were made.
as §3

[3] = system: Phakopsora pachyrhizi; test: Test D: Asian soybean rust, preventive spray on soybean seedlings; conditions: 216 h, 100 = 100% disease control, 0 = no control, read-out: Test D disease control rating
Excerpt: as §1
The test solution was sprayed to the point of run-off on soybean seedlings. The following day the seedlings were inoculated with a spore suspension of Phakopsora pachyrhizi (the causal agent of Asian soybean rust) and incubated in a saturated atmosphere at 22° C. for 24 h and then moved to a growth chamber at 22° C. for 8 days, after which time visual disease ratings were made.
as §3

[4] = system: Botrytis cinerea; test: Test E: tomato Botrytis, preventive spray on tomato seedlings; conditions: 120 h, 100 = 100% disease control, 0 = no control, read-out: Test E disease control rating
Excerpt: as §1
as §2, with “Botrytis cinerea” for “Alternaria solani”, “Botrytis)” for “early blight)”, “20°” for “27°”, “24°” for “20°”
as §3

[5] = system: Septoria tritici; test: Test A: wheat leaf blotch, preventive spray on wheat seedlings; conditions: Zymoseptoria tritici, 456 h, 100 = 100% disease control, 0 = no control, read-out: Test A disease control rating
Excerpt: as §1
The test solution was sprayed to the point of run-off on wheat seedlings. The following day the seedlings were inoculated with a spore suspension of Septoria tritici (the causal agent of wheat leaf blotch) and incubated in a saturated atmosphere at 24° C. for 48 h, and then moved to a growth chamber at 20° C. for 17 days, after which time disease ratings were made.
as §3

SMILES	pest or weed control at 50 ppm [1] [%]	pest or weed control at 50 ppm [2] [%]	pest or weed control at 50 ppm [3] [%]	pest or weed control at 50 ppm [4] [%]	pest or weed control at 50 ppm [5] [%]	pest or weed control at 10 ppm [1] [%]	pest or weed control at 10 ppm [2] [%]	pest or weed control at 10 ppm [3] [%]	pest or weed control at 10 ppm [4] [%]	pest or weed control at 10 ppm [5] [%]
Cc1nn(C)c(Nc2c(F)cccc2[N+](=O)[O-])c1-c1c(F)cc(F)cc1Br [Compound 1, 4-(2-bromo-4,6-difluorophenyl)-N-(2-fluoro-6-nitrophenyl)-1,3-dimethyl-1H-pyrazol-5-amine]	99	100	84	100	100					
Cc1nn(C)c(Nc2c(Cl)cc(F)cc2[N+](=O)[O-])c1-c1ccc(C#N)cc1Cl [Compound 18, 3-chloro-4-[5-[(2-chloro-4-fluoro-6-nitrophenyl)amino]-1,3-dimethyl-1H-pyrazol-4-yl]benzonitrile]	99	100	92	100	100					
Cc1nn(C)c(Nc2c(Cl)cc(F)cc2[N+](=O)[O-])c1-c1ccc(F)cc1Cl [Compound 19, N-(2-chloro-4-fluoro-6-nitrophenyl)-4-(2-chloro-4-fluorophenyl)-1,3-dimethyl-1H-pyrazol-5-amine]	99	100	98	100	100					
COc1cc(F)c(Nc2c(-c3c(F)cccc3Cl)c(C)nn2C)c([N+](=O)[O-])c1 [Compound 23, 4-(2-chloro-6-fluorophenyl)-N-(2-fluoro-4-methoxy-6-nitrophenyl)-1,3-dimethyl-1H-pyrazol-5-amine]	99	100	99	97	100					
COc1cc(F)c(Nc2c(-c3ccc(F)cc3F)c(C)nn2C)c([N+](=O)[O-])c1 [Compound 57, 4-(2,4-difluorophenyl)-N-(2-fluoro-4-methoxy-6-nitrophenyl)-1,3-dimethyl-1H-pyrazol-5-amine]	100	100	96	100	100					
Cc1nn(C)c(Nc2c(F)cccc2[N+](=O)[O-])c1-c1ccc(F)cc1Br [Compound 60, 4-(2-bromo-4-fluorophenyl)-N-(2-fluoro-6-nitrophenyl)-1,3-dimethyl-1H-pyrazol-5-amine]	99	100	97	99	100	75	100	0	99	99
Cc1nn(C)c(Nc2c(F)cc(Br)cc2[N+](=O)[O-])c1-c1ccc(F)cc1Cl [Compound 61, N-(4-bromo-2-fluoro-6-nitrophenyl)-4-(2-chloro-4-fluorophenyl)-1,3-dimethyl-1H-pyrazol-5-amine]	99	100	84	99	100					
Cc1nn(C)c(Nc2c(F)cccc2[N+](=O)[O-])c1-c1c(F)cc(F)cc1Cl [Compound 68, 4-(2-chloro-4,6-difluorophenyl)-N-(2-fluoro-6-nitrophenyl)-1,3-dimethyl-1H-pyrazol-5-amine]	99	100	99	100	100	98	100	32	100	100
CCc1nn(C)c(Nc2c(F)cccc2[N+](=O)[O-])c1-c1ccc(F)cc1Cl [Compound 72, 4-(2-chloro-4-fluorophenyl)-N-(2-fluoro-6-nitrophenyl)-3-ethyl-1-methyl-1H-pyrazol-5-amine]	99	100	31	98	100	63	85	12	98	100
COc1ccc(-c2c(C)nn(C)c2Nc2c(Cl)cc(F)cc2[N+](=O)[O-])c(Cl)c1 [Compound 73, N-(2-chloro-4-fluoro-6-nitrophenyl)-4-(2-chloro-4-methoxyphenyl)-1,3-dimethyl-1H-pyrazol-5-amine]	97	100	98	99	100					
Cc1cc(F)c(Nc2c(-c3ccc(F)cc3Cl)c(C)nn2C)c([N+](=O)[O-])c1 [Compound 93, 4-(2-chloro-4-fluorophenyl)-N-(2-fluoro-4-methyl-6-nitrophenyl)-1,3-dimethyl-1H-pyrazol-5-amine]	99	100	100	100	100	99	100	87	99	99
Cc1nn(C)c(Nc2ccc(F)cc2[N+](=O)[O-])c1-c1ccc(F)cc1Cl [Compound 111, 4-(2-chloro-4-fluorophenyl)-N-(4-fluoro-2-nitrophenyl)-1,3-dimethyl-1H-pyrazol-5-amine]	93	99	0	100	100					
Cc1nn(C)c(Nc2c(F)cccc2[N+](=O)[O-])c1-c1ccc(C#N)cc1Cl [Compound 113, 3-chloro-4-[5-[(2-fluoro-6-nitrophenyl)amino]-1,3-dimethyl-1H-pyrazol-4-yl]benzonitrile]	99	99	13	99	100					
Cc1nn(C)c(Nc2c(F)cccc2[N+](=O)[O-])c1-c1ccc(F)cc1F [Compound 118, 4-(2,4-difluorophenyl)-N-(2-fluoro-6-nitrophenyl)-1,3-dimethyl-1H-pyrazol-5-amine]	99	100	0	100	100	60	80	0	99	100
Cc1nn(C)c(Nc2c(F)cc(Cl)cc2[N+](=O)[O-])c1-c1ccc(F)cc1Cl [Compound 121, N-(4-chloro-2-fluoro-6-nitrophenyl)-4-(2-chloro-4-fluorophenyl)-1,3-dimethyl-1H-pyrazol-5-amine]	100	100	99	100	100					
Cc1cc(F)c(Nc2c(-c3ccc(C#N)cc3Cl)c(C)nn2C)c([N+](=O)[O-])c1 [Compound 127, 3-chloro-4-[5-[(2-fluoro-4-methyl-6-nitrophenyl)amino]-1,3-dimethyl-1H-pyrazol-4-yl]benzonitrile]	100	99	96	100	100					
